Laboratory results from US12454529B2, “Piperazine cyclic ureas” (SIRONAX LTD., priority 2020, dated 2025).

These molecules were tested on HT-29 cells (assay: HT-29 cell necrosis/necroptosis inhibition (TNF-α + SMAC mimetic + zVAD-FMK; CellTiter-Glo cell viability)). Conditions: Homo sapiens, HT-29, 20 h, read-out: EC50 (Cell activity; Necrosis/Necroptosis Inhibitory Activity, Compounds 1-142).
Assay type: cell-based
How it was run: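 Necroptosis was driven by TNF-α 10 ng/ml plus SMAC mimetic 6 μM and zVAD-FMK 10 μM in serum-free medium, with compounds as a 10-point threefold titration. After 20 h at 37 °C, ATP-based luminescence was read; EC50 values are geometric means of duplicate curves.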
In the case of `CCn1nc(C)c(-c2nc(N3CCN(C(=O)N4N=CC[C@H]4c4cc(F)cc(F)c4)CC3)ncc2F)c1C` [Compound 117, (S)-(5-(3,5-difluorophenyl)-4,5-dihydro-1H-pyrazol-1-yl)(4-(4-(1-ethyl-3,5-dimethyl-1H-pyrazol-4-yl)-5-fluoropyrimidin-2-yl)piperazin-1-yl)methanone], the EC50 is reported as 0.1 to 100 nM.
In the case of `CC(=O)Nc1c(C)nn(-c2nc(N3CCN(C(=O)N4N=CC[C@H]4c4cc(F)cc(C#N)c4)CC3)ncc2F)c1C` [Compound 142, (S)—N-(1-(2-(4-(5-(3-cyano-5-fluorophenyl)-4,5-dihydro-1H-pyrazole-1-carbonyl)piperazin-1-yl)-5-fluoropyrimidin-4-yl)-3,5-dimethyl-1H-pyrazol-4-yl)acetamide], the EC50 is reported as 0.1 to 100 nM.

Same assay, conditions: Homo sapiens; HT-29 cells, TNF-α 10 ng/ml + SMAC mimetic 6 μM + zVAD-FMK 10 μM, 20 hours; geometric mean, 10 points in duplicate; read-out: EC50 (Cell activity; Necrosis/Necroptosis Inhibitory Activity, Compounds 1-142)
`Cc1cc(-c2nc(N3CCN(C(=O)N4N=CC[C@H]4c4cc(F)cc(F)c4)CC3)ncc2F)n(C)n1` [Compound 83, (S)-(5-(3,5-difluorophenyl)-4,5-dihydro-1H-pyrazol-1-yl)(4-(4-(1,3-dimethyl-1H-pyrazol-5-yl)-5-fluoropyrimidin-2-yl)piperazin-1-yl)methanone] gave an EC50 of 0.1 to 100 nM.
With `Cc1c(-c2nc(N3CCN(C(=O)N4N=CC[C@H]4c4cc(F)cc(F)c4)CC3)ncc2F)nnn1CC(N)=O` [Compound 31, (S)-2-(4-(2-(4-(5-(3,5-difluorophenyl)-4,5-dihydro-1H-pyrazole-1-carbonyl)piperazin-1-yl)-5-fluoropyrimidin-4-yl)-5-methyl-1H-1,2,3-triazol-1-yl)acetamide] the EC50 was 0.1 to 100 nM.
`Cn1nncc1-c1nc(N2CCN(C(=O)N3N=CC[C@H]3c3cc(F)cc(F)c3)CC2)ncc1F` [Compound 44, (S)-(5-(3,5-difluorophenyl)-4,5-dihydro-1H-pyrazol-1-yl)(4-(5-fluoro-4-(1-methyl-1H-1,2,3-triazol-5-yl)pyrimidin-2-yl)piperazin-1-yl)methanone] gave an EC50 of 0.1 to 100 nM.
`N#Cc1cccc([C@@H]2CC=NN2C(=O)N2CCN(c3ncc(F)c(-n4cc(C(N)=O)cn4)n3)CC2)c1` [Compound 109, (S)-1-(2-(4-(5-(3-cyanophenyl)-4,5-dihydro-1H-pyrazole-1-carbonyl)piperazin-1-yl)-5-fluoropyrimidin-4-yl)-1H-pyrazole-4-carboxamide] was tested, and the EC50 was 0.1 to 100 nM.
`Cc1nc(C#N)nn1-c1nc(N2CCN(C(=O)N3N=CC[C@H]3c3cc(F)cc(C#N)c3)CC2)ncc1F` [Compound 139, (S)-1-(2-(4-(5-(3-cyano-5-fluorophenyl)-4,5-dihydro-1H-pyrazole-1-carbonyl)piperazin-1-yl)-5-fluoropyrimidin-4-yl)-5-methyl-1H-1,2,4-triazole-3-carbonitrile] showed an EC50 of 0.1 to 100 nM.
Molecule `O=C(N1CCN(c2ncc(F)c(-c3n[nH]nc3I)n2)CC1)N1N=CC[C@H]1c1cc(F)cc(F)c1` [Compound 20, (S)-(5-(3,5-difluorophenyl)-4,5-dihydro-1H-pyrazol-1-yl)(4-(5-fluoro-4-(5-iodo-1H-1,2,3-triazol-4-yl)pyrimidin-2-yl)piperazin-1-yl)methanone] has an EC50 of 0.1 to 100 nM.
`Cc1nn(CC2CCCCO2)c(C)c1-c1nc(N2CCN(C(=O)N3N=CC[C@H]3c3cc(F)cc(C#N)c3)CC2)ncc1F` (some centres unmarked) [Compound 137, 3-((58)-1-(4-(4-(3,5-dimethyl-1-((tetrahydro-2H-pyran-2-yl)methyl)-1H-pyrazol-4-yl)-5-fluoropyrimidin-2-yl)piperazine-1-carbonyl)-4,5-dihydro-1H-pyrazol-5-yl)-5-fluorobenzonitrile] showed an EC50 of 0.1 to 100 nM.
With `Cc1nn(CCO)c(C)c1-c1nc(N2CCN(C(=O)N3N=CC[C@H]3c3cc(F)cc(F)c3)CC2)ncc1F` [Compound 118, (S)-(5-(3,5-difluorophenyl)-4,5-dihydro-1H-pyrazol-1-yl)(4-(5-fluoro-4-(1-(2-hydroxyethyl)-3,5-dimethyl-1H-pyrazol-4-yl)pyrimidin-2-yl)piperazin-1-yl)methanone] the EC50 was 0.1 to 100 nM.
`N#Cc1cccc([C@@H]2CC=NN2C(=O)N2CCN(c3nccc(-n4cc(C(N)=O)cn4)n3)CC2)c1` [Compound 106, (S)-1-(2-(4-(5-(3-cyanophenyl)-4,5-dihydro-1H-pyrazole-1-carbonyl)piperazin-1-yl)pyrimidin-4-yl)-1H-pyrazole-4-carboxamide] gave an EC50 of 0.1 to 100 nM.
Molecule `O=C(N1CCN(c2nccc(-c3cc[nH]n3)n2)CC1)N1N=CC[C@H]1c1cccc(F)c1` [Compound 35, (S)-(4-(4-(1H-pyrazol-3-yl)pyrimidin-2-yl)piperazin-1-yl)(5-(3-fluorophenyl)-4,5-dihydro-1H-pyrazol-1-yl)methanone] has an EC50 of 0.1 to 100 nM.

Same assay, conditions: Homo sapiens; HT-29 cells, TNF-α 10 ng/ml + SMAC mimetic 6 μM + zVAD-FMK 10 μM, 20 hours; geometric mean, 10 points in duplicate; read-out: EC50 (Cell activity; Necrosis/Necroptosis Inhibitory Activity, Compounds 143-323)
For `N#Cc1cnn(-c2ncc(F)c(N3CCN(C(=O)N4N=CC[C@H]4c4cc(F)cc(F)c4)CC3)n2)c1` [Compound 218, (S)-1-(4-(4-(5-(3,5-difluorophenyl)-4,5-dihydro-1H-pyrazole-1-carbonyl)piperazin-1-yl)-5-fluoropyrimidin-2-yl)-1H-pyrazole-4-carbonitrile], the EC50 was 0.1 to 100 nM.
Molecule `CCn1nc(C)n(-c2nc(N3CCN(C(=O)N4N=CC[C@H]4c4cc(F)cc(C#N)c4)CC3)ncc2F)c1=O` [Compound 183, (S)-3-(1-(4-(4-(1-ethyl-3-methyl-5-oxo-1,5-dihydro-4H-1,2,4-triazol-4-yl)-5-fluoropyrimidin-2-yl)piperazine-1-carbonyl)-4,5-dihydro-1H-pyrazol-5-yl)-5-fluorobenzonitrile] has an EC50 of 0.1 to 100 nM.
`Cc1nc(C)n(-c2nc(N3CCN(C(=O)N4N=CCC4c4cnc(C)s4)CC3)ncc2F)n1` (centres unmarked) [Compound 291, (4-(4-(3,5-dimethyl-1H-1,2,4-triazol-1-yl)-5-fluoropyrimidin-2-yl)piperazin-1-yl)(5-(2-methylthiazol-5-yl)-4,5-dihydro-1H-pyrazol-1-yl)methanone] was tested, and the EC50 was 0.1 to 100 nM.
In the case of `Cc1cnn(C)c1-c1nc(N2CCN(C(=O)N3N=CC[C@H]3c3cc(F)cc(C#N)c3)CC2)sc1CO` [Compound 266, (S)-3-(1-(4-(4-(1,4-dimethyl-1H-pyrazol-5-yl)-5-(hydroxymethyl)thiazol-2-yl)piperazine-1-carbonyl)-4,5-dihydro-1H-pyrazol-5-yl)-5-fluorobenzonitrile], the EC50 is reported as 1000 to 10000 nM.
`Cc1nc(C)n(-c2ncc(F)c(N3CCN(C(=O)N4N=CC[C@H]4c4cc(F)cc(C#N)c4)CC3)n2)n1` [Compound 258, (S)-3-(1-(4-(2-(3,5-dimethyl-1H-1,2,4-triazol-1-yl)-5-fluoropyrimidin-4-yl)piperazine-1-carbonyl)-4,5-dihydro-1H-pyrazol-5-yl)-5-fluorobenzonitrile] showed an EC50 of 0.1 to 100 nM.
`Cc1nnc(-c2nc(N3CCN(C(=O)N4N=CC[C@H]4c4cc(F)cc(C#N)c4)CC3)ncc2F)n1C` [Compound 179, (S)-3-(1-(4-(4-(4,5-dimethyl-4H-1,2,4-triazol-3-yl)-5-fluoropyrimidin-2-yl)piperazine-1-carbonyl)-4,5-dihydro-1H-pyrazol-5-yl)-5-fluorobenzonitrile] was tested, and the EC50 was 0.1 to 100 nM.
`Cc1cnn(C)c1-c1ncc(F)c(N2CCN(C(=O)N3N=CCC3c3ncccc3Cl)CC2)n1` (centres unmarked) [Compound 261, (5-(3-chloropyridin-2-yl)-4,5-dihydro-1H-pyrazol-1-yl)(4-(2-(1,4-dimethyl-1H-pyrazol-5-yl)-5-fluoropyrimidin-4-yl)piperazin-1-yl)methanone] gave an EC50 of 0.1 to 100 nM.
Work on `Cc1nc(C)n(-c2nc(N3CCN(C(=O)N4N=CC[C@H]4c4cc(F)cc(F)c4)CC3)ncc2Cl)n1` [Compound 259, (S)-(4-(5-chloro-4-(3,5-dimethyl-1H-1,2,4-triazol-1-yl)pyrimidin-2-yl)piperazin-1-yl)(5-(3,5-difluorophenyl)-4,5-dihydro-1H-pyrazol-1-yl)methanone] yielded an EC50 of 0.1 to 100 nM.
In the case of `Cn1nc(C(=O)O)nc1-c1nc(N2CCN(C(=O)N3N=CCC3c3cc(F)cc(F)c3)CC2)ncc1F` (centres unmarked) [Compound 230, 5-(2-(4-(5-(3,5-difluorophenyl)-4,5-dihydro-1H-pyrazole-1-carbonyl)piperazin-1-yl)-5-fluoropyrimidin-4-yl)-1-methyl-1H-1,2,4-triazole-3-carboxylic acid], the EC50 is reported as 100 to 1000 nM.
Work on `Cc1nc(CF)nn1-c1nc(N2CCN(C(=O)N3N=CC[C@H]3c3cc(F)cc(C#N)c3)CC2)ncc1F` [Compound 246] yielded an EC50 of 0.1 to 100 nM.
`Cc1nc(C)n(-c2nc(N3CCN(C(=O)N4N=CC[C@@H]4c4cc(F)cc(F)c4F)CC3)ncc2F)n1` [Compound 265, (R)-(4-(4-(3,5-dimethyl-1H-1,2,4-triazol-1-yl)-5-fluoropyrimidin-2-yl)piperazin-1-yl)(5-(2,3,5-trifluorophenyl)-4,5-dihydro-1H-pyrazol-1-yl)methanone] showed an EC50 of 100 to 1000 nM.
For `O=C(N1CCN(c2ncc(F)c(-n3nccc3C(F)(F)F)n2)CC1)N1N=CC[C@H]1c1ccccc1` [Compound 307, (S)-(4-(5-fluoro-4-(5-(trifluoromethyl)-1H-pyrazol-1-yl)pyrimidin-2-yl)piperazin-1-yl)(5-phenyl-4,5-dihydro-1H-pyrazol-1-yl)methanone], the EC50 was 0.1 to 100 nM.
Work on `Cc1nn(-c2ccnc(N3CCN(C(=O)N4N=CC[C@H]4c4cncc(F)c4)CC3)n2)c(C)c1C(N)=O` [Compound 285, (S)-1-(2-(4-(5-(5-fluoropyridin-3-yl)-4,5-dihydro-1H-pyrazole-1-carbonyl)piperazin-1-yl)pyrimidin-4-yl)-3,5-dimethyl-1H-pyrazole-4-carboxamide] yielded an EC50 of 0.1 to 100 nM.
With `Cc1ncn(-c2nc(N3CCN(C(=O)N4N=CC[C@H]4c4cncc(F)c4)CC3)ncc2F)n1` [Compound 311, (S)-(4-(5-fluoro-4-(3-methyl-1H-1,2,4-triazol-1-yl)pyrimidin-2-yl)piperazin-1-yl)(5-(5-fluoropyridin-3-yl)-4,5-dihydro-1H-pyrazol-1-yl)methanone] the EC50 was 0.1 to 100 nM.
